Results published in article PMC6112376, “Comprehensive Analyses and Prioritization of Tox21 10K Chemicals Affecting Mitochondrial Function by in-Depth Mechanistic Studies” (Environmental Health Perspectives, 2018).
Where two headings read alike, the source gives them in different places.

Legend:
rat primary hepatocytes [1] = system: rat primary hepatocytes
HepG2 cells [2] = settings: cited from earlier work
HepG2 cells [3] = assay: cells; settings: Homo sapiens; for IC50: HepG2, read-out: MMP assays IC50 (µM) HepG2; for Emax: HepG2, read-out: MMP assays efficacy (%) HepG2
rat primary hepatocytes [4] = assay: MMP assay in rat primary hepatocytes; settings: for IC50: read-out: MMP assays IC50 (µM) Rat Hepatocytes
HepG2 cells [5] = settings: for IC50: read-out: MMP assays IC50 (µM) HepG2
[6] = read-out: MMP assays IC50 (µM) qHTS-HepG2
[7] = read-out: MMP assays IC50 (µM), qHTS-HepG2
[8] = HepG2 cells, single number from one experiment
[9] = rat hepatocytes, mean ± SD of three experiments

| Molecule | MMP assays efficacy (%) Rat Hepatocytes (rat primary hepatocytes [1]) | MMP assays efficacy (%) qHTS-HepG2 (HepG2 cells [2]) | IC50 (HepG2 cells [2]; [6]) | IC50 (HepG2 cells [3]) | Emax (HepG2 cells [3]) | IC50 (rat primary hepatocytes [4]; Rattus norvegicus, Hepatocyte) | IC50 (HepG2 cells [2]; [7]) | MMP assays efficacy (%) HepG2 (HepG2 cells [5]; [8]) | MMP assays efficacy (%) Rat Hepatocytes (rat primary hepatocytes [4]; [9]) | IC50 (HepG2 cells [5]; [8]) | further results |
| --- | --- | --- | --- | --- | --- | --- | --- | --- | --- | --- | --- |
| CC(=O)c1cc2c(cc1C)C(C)(C)C(C)CC2(C)C (centres unmarked) | inactive | -74±22% | 30.6 ± 18.9 µM | 28.2 µM | 73% | – | – | – | – | – | MMP assays IC50 (µM) Rat Hepatocytes (rat primary hepatocytes [4]): inactive |
| CCC(C)(C)c1cc(O)c(C(C)(C)CC)cc1O | -87±19% | -121±19% | 6.86 ± 3.17 µM | 3.55 µM | 101% | 34.5 ± 5.88 µM | – | – | – | – | – |
| C[C@@]1(c2ccc(Oc3ccccc3)cc2)OC(=O)N(Nc2ccccc2)C1=O (racemic) [Famoxadone] | -158±101% | -104±6% | 4.19 ± 1.07 µM | 4.47 µM | 107% | 8.38 ± 6.71 µM | – | – | – | – | – |
| c1ccc(-c2cccc(-c3ccccc3)c2)cc1 [1,1':3',1''-Terphenyl] | -53±28% | -80±13% | 47.9 ± 14.3 µM | 50.1 µM | 90% | 29.6 ± 27.7 µM | – | – | – | – | – |
| CC(=O)C(Cl)(Cl)Cl [1,1,1-Trichloropropanone] | -42±17% | -93±13% | 1.22 ± 0.56 µM | 3.16 µM | 123% | 23.7 ± 29.6 µM | – | – | – | – | – |
| BrC1CCC(Br)C(Br)CCC(Br)C(Br)CCC1Br (centres unmarked) [1,2,5,6,9,10-Hexabromocyclododecane] | -89±40% | -96±6% | 6.93 ± 1.95 µM | 6.31 µM | 105% | 32 ± 16.5 µM | – | – | – | – | – |
| O=c1[nH]sc2ccccc12 [1,2-Benzisothiazolin-3-one] | inactive | -81±19% | 38.6 ± 13.7 µM | 17.8 µM | 118% | – | – | – | – | – | MMP assays IC50 (µM) Rat Hepatocytes (rat primary hepatocytes [4]): inactive |
| Nc1ccccc1N [1,2-Phenylenediamine] | -41±14% | -96±16% | 3.9 ± 3.61 µM | 2.51 µM | 87% | 17.9 ± 6.5 µM | – | – | – | – | – |
| O=C(CC(=O)c1ccccc1)c1ccccc1 [1,3-Diphenyl-1,3-propanedione] | -84±43% | -75±15% | 11.7 ± 1.35 µM | 35.5 µM | 121% | 39.8 ± 14.2 µM | – | – | – | – | – |
| Nc1ccc(N)cc1 [1,4-Benzenediamine] | inactive | -85±6% | 3.28 ± 0.42 µM | 2.18 µM | 71% | – | – | – | – | – | MMP assays IC50 (µM) Rat Hepatocytes (rat primary hepatocytes [4]): inactive |
| Nc1ccc(N)c2ccccc12 [1,4-Naphthalenediamine] | -44±17% | -88±2% | 0.2 ± 0.08 µM | 2 µM | 109% | 22.7 ± 8.75 µM | – | – | – | – | – |
| Nc1cccc2c(N)cccc12 [1,5-Naphthalenediamine] | inactive | -76±19% | 17 ± 19.6 µM | 3.16 µM | 101% | – | – | – | – | – | MMP assays IC50 (µM) Rat Hepatocytes (rat primary hepatocytes [4]): inactive |
| Brc1ccc(Oc2ccc(Br)cc2Br)c(Br)c1 [2,2'4,4'-Tetrabromodiphenyl ether] | -42±10% | -119±10% | 22.6 ± 5.18 µM | 39.8 µM | 104% | 25.6 ± 34.7 µM | – | – | – | – | – |
| Brc1ccc(Oc2cc(Br)c(Br)cc2Br)c(Br)c1 [2,2',4,4',5-Pentabromodiphenyl ether] | -43±30% | -109±22% | 8 ± 3.19 µM | 4.47 µM | 88% | 9.11 ± 4.93 µM | – | – | – | – | – |
| COC(=O)Nc1nc2ccc(C(=O)c3ccccc3)cc2[nH]1 [Mebendazole] | inactive | -70±10% | – | 2.34 µM | 89% | – | 2.45 ± 0.34 µM | – | – | – | – |
| O=C([O-])c1cc(=O)c2c3nc4ccccc4oc-3cc(=O)c2[nH]1.[Na+] [Pirenoxine sodium] | – | -54±10% | – | – | – | – | 21.1 ± 17.8 µM | inactive | inactive | – | MMP assays IC50 (µM) HepG2 (HepG2 cells [5]; [8]): inactive; MMP assays IC50 (µM) Rat Hepatocytes (rat primary hepatocytes [4]; [9]): inactive |
| Nc1ccc2cc3ccc(N)cc3nc2c1.Nc1ccc2cc3ccc(N)cc3nc2c1.O=S(=O)(O)O [Proflavin hemisulfate] | – | -115±21% | – | – | – | – | 3.22 ± 0.82 µM | -95% | -94±11% | 3.46 µM | IC50 (rat primary hepatocytes [4]; [9]): 11.6 ± 5.45 µM |
| Cl.Nc1ccc2cc3ccc(N)cc3nc2c1 [Proflavin hydrochloride] | – | -115±14% | – | – | – | – | 1.66 ± 0.63 µM | -97% | -79±34% | 3.55 µM | IC50 (rat primary hepatocytes [4]; [9]): 15.9 ± 5.23 µM |

| Molecule | MMP assays efficacy (%) Rat Hepatocytes (rat primary hepatocytes [1]) | MMP assays efficacy (%) qHTS-HepG2 (HepG2 cells [2]) | IC50 (HepG2 cells [2]; [6]) | IC50 (HepG2 cells [3]) | Emax (HepG2 cells [3]) | IC50 (rat primary hepatocytes [4]; Rattus norvegicus, Hepatocyte) | IC50 (HepG2 cells [2]; [7]) | MMP assays efficacy (%) HepG2 (HepG2 cells [5]; [8]) | MMP assays efficacy (%) Rat Hepatocytes (rat primary hepatocytes [4]; [9]) | IC50 (HepG2 cells [5]; [8]) | further results |
| --- | --- | --- | --- | --- | --- | --- | --- | --- | --- | --- | --- |
| O.O.O.O.[Na+].[O-]c1ccccc1-c1ccccc1 [Sodium 2-phenylphenate tetrahydrate] | – | -98±8% | – | – | – | – | 18.5 µM | -77% | inactive | 31.6 µM | MMP assays IC50 (µM) Rat Hepatocytes (rat primary hepatocytes [4]; [9]): inactive |
| Cl.O=C1CSC2(CCN(CCCN3c4ccccc4Sc4ccc(Cl)cc43)CC2)N1 [Spiclomazine hydrochloride] | – | -107±11% | – | – | – | – | 34.8 ± 2.36 µM | inactive | inactive | – | MMP assays IC50 (µM) HepG2 (HepG2 cells [5]; [8]): inactive; MMP assays IC50 (µM) Rat Hepatocytes (rat primary hepatocytes [4]; [9]): inactive |
| O=C(CCCN1CCC2(CC1)C(=O)NCN2c1ccccc1)c1ccc(F)cc1 [Spiperone] | -74±48% | -65±12% | – | – | 54% | – | – | – | – | – | – |
| O=C1OC(OC(=O)c2cccnc2Nc2cccc(C(F)(F)F)c2)c2ccccc21 (centres unmarked) [Talniflumate] | – | -105±19% | – | – | – | 16 ± 6.68 µM | 27 ± 2.56 µM | inactive | -85±2% | – | MMP assays IC50 (µM) HepG2 (HepG2 cells [5]; [8]): inactive |
| CC(=O)Nc1ccc(NC(=S)NC(=O)c2ccc(C(C)(C)C)cc2)cc1 [Tenovin-1] | – | -115±19% | – | – | – | – | 3.27 ± 2.74 µM | -114% | -41±18% | 3.88 µM | IC50 (rat primary hepatocytes [4]; [9]): 18.4 ± 1.5 µM |
| CCOC(=O)c1ccccc1C(=C1C=C(Br)C(=O)C(Br)=C1)c1cc(Br)c(O)c(Br)c1 [Tetrabromophenolphthalein ethyl ester] | – | -105±26% | – | – | – | – | 23.8 ± 6.89 µM | -129% | -101±25% | 26.6 µM | IC50 (rat primary hepatocytes [4]; [9]): 13.8 ± 0.94 µM |
| CCCOc1ccc2nc(NC(=O)OC)sc2c1 [Tioxidazole] | – | -70±6% | – | – | – | – | 7.5 ± 1.75 µM | -62% | -65±43% | 15.5 µM | IC50 (rat primary hepatocytes [4]; [9]): 13 ± 1.06 µM |
| Cc1cc2nc3ccc(N(C)C)cc3[s+]c2cc1N.[Cl-] [Toluidine blue] | – | -50±26% | – | – | – | – | 3.48 ± 1.6 µM | -44% | inactive | 4.89 µM | MMP assays IC50 (µM) Rat Hepatocytes (rat primary hepatocytes [4]; [9]): inactive |
| CCCCCCCCCCCCCC[P+](CCCCCC)(CCCCCC)CCCCCC.[Cl-] [Trihexyltetradecylphosphonium chloride] | – | -113±11% | – | – | – | – | 0.77 ± 0.35 µM | -101% | -91±44% | 0.89 µM | IC50 (rat primary hepatocytes [4]; [9]): 30.3 ± 8.97 µM |
| CC(C)(C)OC(=O)c1ccc(O)cc1 [tert-Butyl 4-hydroxybenzoate] | – | -99±24% | – | – | – | – | 25.3 ± 7.32 µM | -105% | -80±10% | 35.5 µM | IC50 (rat primary hepatocytes [4]; [9]): 50.8 ± 9.48 µM |
| CCCCCCCC[N+](CCCCCCCC)(CCCCCCCC)CCCCCCCC.[Br-] [tetra-N-Octylammonium bromide] | – | -88±6% | – | – | – | – | – | -92% | inactive | 0.13 µM | MMP assays IC50 (µM) Rat Hepatocytes (rat primary hepatocytes [4]; [9]): inactive |
| Acriflavine hydrochloride | – | -131±19% | 0.94 ± 0.44 µM | – | – | – | – | – | – | – | MMP assays efficacy (%) HepG2 (HepG2 cells [5]): -107%; IC50 (HepG2 cells [5]): 0.44 µM; IC50 (rat primary hepatocytes [4]): 3.55 ± 1.14 µM |
| Bis(tributyltin)oxide | – | -112±4% | 0.09 ± 0.02 µM | – | – | – | – | – | – | – | MMP assays efficacy (%) HepG2 (HepG2 cells [5]): -98%; IC50 (HepG2 cells [5]): 0.31 µM; MMP assays IC50 (µM) Rat Hepatocytes (rat primary hepatocytes [4]): inactive |
| Diniconazole | – | – | 12.2 ± 3.53 µM | – | – | – | – | – | – | – | IC50 (HepG2 cells [5]): 8.91 µM; IC50 (rat primary hepatocytes [4]): 36 ± 28.6 µM |
| Dodecylphenol | – | – | 3.1 ± 1.22 µM | – | – | – | – | -100% | -59±7% | 3.16 µM | IC50 (rat primary hepatocytes [4]; [9]): 41.1 ± 13.2 µM |
| TYROTHRICIN | -89±25% | – | – | – | – | – | – | – | – | – | – |
| Verteporfin | – | -65±5% | – | – | – | – | 3.27 ± 1.85 µM | -127% | -43±14% | 8.69 µM | IC50 (rat primary hepatocytes [4]; [9]): 21.8 ± 7.79 µM |
